The values that follow are results of earlier work, collected in patent US12414981B2, “JNK inhibitors for use in treating and preventing neurodegenerative disorders” (Northwestern University, priority 2021, dated 2025).

For this series the following is noted: in vivo.

With `Oc1c2ccccc2c2c3c(cccc13)N=N2` [SP600125, anthra [1,9]pyrazol-6 (2H)-one], the “crosses the blood-brain barrier” value was “crosses the blood-brain barrier”.
